Reference: patent publication US6946464B2, “Methods of treating and preventing a convulsive state” (Sepracor Inc., priority 1999, dated 2005)

Assays:
[1] = target: central benzodiazepine receptor; test: Binding at the central benzodiazepine receptor (competition of specific binding); conditions: rat cerebral cortex; for IC50: 10 concentrations in duplicate, nonlinear regression; for Ki: inhibition constant calculated from competition curves
Description: (§1) The binding of N-desmethylzopiclone was determined at the central benzodiazepine receptor and at the non-selective muscarinic receptor, both of which were isolated from rat cerebral cortex. Compounds were tested initially at 10 μM in duplicate, and if at least a 50% inhibition of specific binding was observed, they were tested further at 10 different concentrations in duplicate in order to obtain full competition curves. IC50 values (concentration required to inhibit 50% specific binding) were determined by nonlinear regression analysis of the curves, and inhibition constants (Ki) were also calculated.

[2] = test system: non-selective muscarinic receptor; test: Binding at the non-selective muscarinic receptor; conditions: rat cerebral cortex; tested at 10 μM in duplicate
Description: as §1

[3] = healthy humans; cited from earlier work
[4] = as reported by Goa and Heel, Drugs 32:48-65 (1986); cited from earlier work

SMILES	IC50 [1] [nM]	Ki [1] [nM]	Muscarinic (% Inhibition) [2] [%]	share of an oral dose of racemic zopiclone accounted for by the metabolite [3] [%]	reported pharmacological activity [4]
O=C(OC1c2nccnc2C(=O)N1c1ccc(Cl)cn1)N1CCNCC1 (racemic) [(±)-N-desmethylzopiclone]	1100	924	10		
CN1C(=O)CN=C(c2ccccc2)c2cc(Cl)ccc21 [Diazepam, reference compound]	12	10			
O=C(O[C@@H]1c2nccnc2C(=O)N1c1ccc(Cl)cn1)N1CCNCC1 [(−)-N-desmethylzopiclone]	7090	5960	24		
O=C(O[C@H]1c2nccnc2C(=O)N1c1ccc(Cl)cn1)N1CCNCC1 [N-desmethylzopiclone]				15	inactive
O=C(O[C@H]1c2nccnc2C(=O)N1c1ccc(Cl)cn1)N1CCNCC1 [(+)-N-desmethylzopiclone]	545	458	19		
C[N+]1([O-])CCN(C(=O)O[C@H]2c3nccnc3C(=O)N2c2ccc(Cl)cn2)CC1 [N-oxidezopiclone, reference compound]				11	less active than zopiclone
